Values quoted from earlier work in patent US8993486B2, “Ultra-high throughput screening methods to detect synergistic drug interactions” (Lankenau Institute for Medical Research Chemical Genomics …, priority 2010, dated 2015).

Test system: diverse fungal pathogens

| Compound | fungicidal activity alone (low dosage) | synergy with ketoconazole (KTC) activity (checkerboard assay, diverse fungal pathogens) |
| --- | --- | --- |
| CC(=O)N1CCN(c2ccc(OCC3COC(Cn4ccnc4)(c4ccc(Cl)cc4Cl)O3)cc2)CC1 (centres unmarked) [ketoconazole] | little detectable fungicidal activity | – |
| beauvericin | – | dramatically synergized KTC activity |
